In assay [1] the test system is P. acnes. Format: cell-based. The settings on record: salicylate 0.08% to 5%. From the text:
In-Vitro testing for the synergetic inhibitory effects of Compound A and salicylic acid on the growth of P. acnes.
The objective of this experiment was to establish the minimal inhibitory concentration (MIC) of the peptide (Compound A) towards the bacterium P. acnes, in the presence of a range of concentrations of sodium salt of salicylic acid. MIC is defined as the lowest concentration of an active material resulting in lack of microbial growth. P. acnes (BD, cat. #237038, batch #6152097) was inoculated at 3 different dilutions and grown on blood agar plates for one week in anaerobic condition at 37 deg. C. Bacteria were then inoculated in thioglycollate broth in a 96 well plate, at the density equal to 0.5 McFarland standard in the presence of peptide (Compound A) concentrations ranging from 0.25 ug/ml to 32 ug/ml and salicylate concentrations ranging from 0.08% to 5% (checker method). MIC was determined visually and confirmed by spectrophotometry at 490 nm and 590 nm on the BioRad 3550-UV microplate reader.

The test system of assay [2] is P. acnes. The settings on record: cited from earlier work.

Residues, ends and D or L forms follow the SMILES beside them.

This is an account of results in US20070207112A1, “Anti-acne composition” (GRANT INDUSTRIES, INC., priority 2006, published 2007).

Turning to `CC(C)C[C@H](NC(=O)[C@H](C)NC(=O)[C@H](CCCCN)NC(=O)[C@H](CC(C)C)NC(=O)[C@H](C)NC(=O)[C@H](CCCCN)NC(=O)[C@H](CC(C)C)NC(=O)[C@H](CC(C)C)NC(=O)[C@H](C)NC(=O)[C@H](CCCCN)NC(=O)[C@H](CC(C)C)NC(=O)[C@H](C)NC(=O)[C@H](CCCCN)NC(=O)[C@H](C)NC(=O)[C@@H](N)Cc1ccccc1)C(N)=O` [Compound A, FAKALKALLKALKAL-NH2] (H-FAKALKALLKALKAL-NH2; N-terminus assumed), in the assay on P. acnes [1], the “Effect of added sodium salicylate on antimicrobial activity of the peptide” value is recorded as “strongly enhance its antimicrobial activity”. In the assay with P. acnes [2] (in-vitro, reported in earlier filings), the “MIC against P. acnes (in words)” value is “low in-vitro minimum inhibitory concentration (MIC) against P. acnes”.
Regarding `O=C(O)c1ccccc1O` [salicylic acid, reference compound], in the assay on P. acnes [2] (U.S. Pat. No. 4,520,133), the “Antibacterial activity against P. acnes” value is “does not posses any antibacterial activity against P. acnes”.
